What was measured:
[1] = target: T1, Amine oxidase [flavin-containing] B (Rattus norvegicus, UniProt P19643); experiment: Enzyme Inhibition Assay; details: pH 7.4; 37 °C
T1 sequence (P19643 whole entry): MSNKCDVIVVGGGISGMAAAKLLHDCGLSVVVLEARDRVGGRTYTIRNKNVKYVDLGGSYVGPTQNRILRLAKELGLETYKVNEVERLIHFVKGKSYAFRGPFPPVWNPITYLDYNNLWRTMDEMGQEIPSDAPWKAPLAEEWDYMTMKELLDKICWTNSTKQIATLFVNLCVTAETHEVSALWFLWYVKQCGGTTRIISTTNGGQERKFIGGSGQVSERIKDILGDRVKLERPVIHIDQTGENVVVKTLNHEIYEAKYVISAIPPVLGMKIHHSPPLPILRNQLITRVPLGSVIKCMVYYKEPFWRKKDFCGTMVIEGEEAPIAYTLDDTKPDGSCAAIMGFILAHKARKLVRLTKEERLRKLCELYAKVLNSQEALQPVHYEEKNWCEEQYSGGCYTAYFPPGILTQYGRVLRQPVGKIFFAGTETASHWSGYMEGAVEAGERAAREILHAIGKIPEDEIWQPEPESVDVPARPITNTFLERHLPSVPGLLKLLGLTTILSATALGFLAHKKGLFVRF
Source text: (§1) Inhibition of MAO activity in rat brain homogenates.

[2] = target: T2, Amine oxidase [flavin-containing] A (Rattus norvegicus, UniProt P21396); experiment: Enzyme Inhibition Assay; details: pH 7.4; 37 °C
T2 sequence (P21396 whole entry): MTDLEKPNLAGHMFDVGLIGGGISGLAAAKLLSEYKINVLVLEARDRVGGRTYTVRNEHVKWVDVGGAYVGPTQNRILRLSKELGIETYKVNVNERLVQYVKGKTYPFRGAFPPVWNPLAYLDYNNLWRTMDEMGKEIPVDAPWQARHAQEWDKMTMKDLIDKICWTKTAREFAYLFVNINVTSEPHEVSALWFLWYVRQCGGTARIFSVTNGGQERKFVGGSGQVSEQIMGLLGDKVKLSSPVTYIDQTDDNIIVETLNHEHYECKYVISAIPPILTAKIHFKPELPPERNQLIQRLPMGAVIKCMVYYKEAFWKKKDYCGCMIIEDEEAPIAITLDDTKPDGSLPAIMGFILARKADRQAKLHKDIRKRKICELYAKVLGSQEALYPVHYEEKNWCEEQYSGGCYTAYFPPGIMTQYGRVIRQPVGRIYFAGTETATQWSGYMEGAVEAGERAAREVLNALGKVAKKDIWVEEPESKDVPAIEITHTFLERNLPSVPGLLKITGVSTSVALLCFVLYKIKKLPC
Source text: as §1

Structure (SMILES) | IC50 [1] [nM] | IC50 [2] [nM]
C#CCN(C)Cc1ccc(O)c2ncccc12 [Chelator, M30] | 37 | –
C#CCN(C)Cc1ccc(OC(=O)N(C)CC)c2ncccc12 [Prochelators, 3] | – | 9.6
C#CCN(C)Cc1ccc(OC(=O)N(C)C)c2ncccc12 [Prochelators, 2] | 7900 | 7.7

Reference: BindingDB's records for doi:10.1021/cb900264w (The Weizmann Institute of Science, 2010)
